Consider two compounds from paper PMC6407579, “New flavonoid – N,N-dibenzyl(N-methyl)amine hybrids: Multi-target-directed agents for Alzheimer´s disease endowed with neurogenic properties” (Journal of Enzyme Inhibition and Medicinal Chemistry, 2019).

“And” between values parts separate entries of the source, which are not always exact repeats. Identical values can stand only once.

Data set [1] deals with T1, human recombinant AChE (hAChE) (Homo sapiens, UniProt P22303).
T1 construct: purchased Sigma Chemical Co
The experiment in a line: biochemical. Conditions: mean ± SEM (n = 3); read-out: hAChE IC50. The procedure: The Ellman method was followed, using human recombinant AChE and BuChE from human serum. The assay solution consisted of 0.1 M phosphate buffer pH 8.0, 400 μM 5,5´-dithiobis(2-nitrobenzoic acid) (DTNB, Ellman’s reagent), 0.05 U/mL hAChE (Sigma Chemical Co.) or 0.024 U/mL hBuChE (Sigma Chemical Co.), and 800 μM acetylthiocholine iodide, or 500 μM butyrylthiocholine as the substrate of the enzymatic reaction, respectively. The compounds tested were added to the assay solution and preincubated with the enzyme for 5 min at 30 °C. After that period, the substrate was added.

A further data set deals with T2, σ2R (Rattus norvegicus, UniProt Q5U3Y7).
T2 construct: 150 µg of rat liver homogenate were incubated; from tissue; host or cells: rat liver homogenate
T2 sequence (Q5U3Y7 1-176): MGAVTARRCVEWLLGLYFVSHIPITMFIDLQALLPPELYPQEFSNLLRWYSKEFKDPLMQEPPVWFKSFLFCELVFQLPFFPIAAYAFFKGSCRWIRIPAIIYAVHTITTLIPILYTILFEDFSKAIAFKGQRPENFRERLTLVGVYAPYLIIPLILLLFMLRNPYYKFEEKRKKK
The experiment in a line: Sigma-2 receptor binding, [3H]-DTG competition.

Data set [2] is described as follows: Oxygen radical absorbance capacity assay (ORAC). As to conditions: trolox taken as 1.0.
The next data set concerns the target T3, recombinant hMAO-A (Homo sapiens, UniProt P21397).
T3 sequence (P21397 1-527): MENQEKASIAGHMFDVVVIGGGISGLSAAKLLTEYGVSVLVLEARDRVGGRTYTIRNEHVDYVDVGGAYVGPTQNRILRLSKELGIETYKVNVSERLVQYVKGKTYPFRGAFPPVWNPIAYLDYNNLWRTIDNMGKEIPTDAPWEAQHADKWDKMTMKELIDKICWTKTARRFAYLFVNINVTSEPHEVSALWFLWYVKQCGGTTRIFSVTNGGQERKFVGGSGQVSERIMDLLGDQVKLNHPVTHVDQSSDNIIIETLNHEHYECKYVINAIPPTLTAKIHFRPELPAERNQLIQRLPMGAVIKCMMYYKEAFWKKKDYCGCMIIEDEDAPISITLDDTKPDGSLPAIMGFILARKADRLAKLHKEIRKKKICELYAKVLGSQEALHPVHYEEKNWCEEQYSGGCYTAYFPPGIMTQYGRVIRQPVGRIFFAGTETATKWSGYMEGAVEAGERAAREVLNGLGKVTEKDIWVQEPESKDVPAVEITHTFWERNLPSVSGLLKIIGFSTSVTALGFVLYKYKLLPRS
The experiment in a line: biochemical. It counts as biochemical.

A further data set deals with T4, σ1R (Cavia porcellus, UniProt Q60492).
T4 construct: the thawed membrane preparation of guinea pig brain cortex; from tissue; host or cells: guinea pig brain cortex membranes
The experiment in a line: Sigma-1 receptor binding, [3H]-(+)-pentazocine competition. On the set-up: species or system guinea pig.

Another data set addresses T5, recombinant hMAO-B (Homo sapiens, UniProt P27338).
T5 sequence (P27338 1-520): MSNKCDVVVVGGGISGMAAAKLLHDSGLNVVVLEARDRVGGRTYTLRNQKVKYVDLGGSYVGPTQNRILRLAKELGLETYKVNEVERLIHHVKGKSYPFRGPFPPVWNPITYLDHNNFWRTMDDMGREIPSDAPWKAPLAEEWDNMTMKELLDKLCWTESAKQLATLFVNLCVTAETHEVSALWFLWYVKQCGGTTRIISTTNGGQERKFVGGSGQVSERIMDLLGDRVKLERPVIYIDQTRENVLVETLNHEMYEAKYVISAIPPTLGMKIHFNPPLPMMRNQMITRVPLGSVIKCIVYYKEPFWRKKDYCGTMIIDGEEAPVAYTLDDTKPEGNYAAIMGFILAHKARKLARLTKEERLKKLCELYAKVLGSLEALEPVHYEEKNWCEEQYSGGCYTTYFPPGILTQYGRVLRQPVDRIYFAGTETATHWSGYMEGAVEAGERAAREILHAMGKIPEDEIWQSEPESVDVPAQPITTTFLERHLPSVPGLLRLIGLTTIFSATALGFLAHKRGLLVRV
The experiment in a line: biochemical. As to conditions: mean ± SEM (n = 3); 100 µM highest concentration tested. The class given is biochemical.

A short description of data set [3]: In vitro blood-brain barrier permeation assay (PAMPA-BBB). The class given is in vitro ADME. As to conditions: pig, pH 7.4, porcine brain lipid, PBS:ethanol (70:30), 25 °C, read-out: PAMPA-BBB permeability in the CNS (Pe). As to the method: Prediction of the brain penetration was evaluated using a parallel artificial membrane permeation assay (PAMPA-BBB), in a similar manner as previously described[36]^,[46]^,[51–53]. Pipetting was performed with a semi-automatic pipettor (CyBi®-SELMA) and UV reading with a microplate spectrophotometer (Multiskan Spectrum, Thermo Electron Co.). Commercial drugs, phosphate buffered saline solution at pH 7.4 (PBS), and dodecane were purchased from Sigma, Aldrich, Acros, and Fluka. Millex filter units (PVDF membrane, diameter 25 mm, pore size 0.45 μm) were acquired from Millipore. The porcine brain lipid (PBL) was obtained from Avanti Polar Lipids. The donor microplate was a 96-well filter plate (PVDF membrane, pore size 0.45 μm) and the acceptor microplate was an indented 96-well plate, both from Millipore. The acceptor 96-well microplate was filled with 200 μL of PBS: ethanol (70:30) and the filter surface of the donor microplate was impregnated with 5 μL of porcine brain lipid (PBL) in dodecane (20 mg mL^−1). Compounds were dissolved in PBS: ethanol (70:30) at 100 μg mL^−1, filtered through a Millex filter, and then added to the donor wells (200 μL). The donor filter plate was carefully put on the acceptor plate to form a sandwich, which was left undisturbed for 120 min at 25 °C. After incubation, the donor plate is carefully removed and the concentration of compounds in the acceptor wells was determined by UV-Vis spectroscopy. Every sample is analysed at five wavelengths, in four wells and at least in three independent runs, and the results are given as the mean ± standard deviation. In each experiment, 11 quality control standards of known BBB permeability were included to validate and normalise the analysis set.
To check if new compounds could be able to reach their CNS-targets, we used the in vitro parallel artificial membrane permeability assay for the blood-brain barrier (PAMPA-BBB) described by Di et al.[87], and partially modified by us for testing molecules with limited water-solubility[36]^,[46]^,[51–53]. The passive CNS-permeation of new compounds 1–13 through a lipid extract of porcine brain was measured at room temperature. In each experiment, 11 commercial drugs of known brain permeability were also tested and their permeability values normalised to the reported PAMPA-BBB data. […].
(PAMPA measures passive passage across an artificial lipid membrane.)

The subject of data set [4] is Aβ levels in cerebrospinal fluid. On the set-up: method as in PMID 29719179. As to conditions: cited from earlier work.

T4 sequence (Q60492 whole entry): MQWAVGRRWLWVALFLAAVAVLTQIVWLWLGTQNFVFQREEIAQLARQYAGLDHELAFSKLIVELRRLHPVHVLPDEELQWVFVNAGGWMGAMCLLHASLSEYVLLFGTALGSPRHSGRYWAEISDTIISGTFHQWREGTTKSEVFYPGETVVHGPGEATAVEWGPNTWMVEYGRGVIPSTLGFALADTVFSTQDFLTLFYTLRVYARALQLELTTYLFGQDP
T1 sequence (P22303 32-614): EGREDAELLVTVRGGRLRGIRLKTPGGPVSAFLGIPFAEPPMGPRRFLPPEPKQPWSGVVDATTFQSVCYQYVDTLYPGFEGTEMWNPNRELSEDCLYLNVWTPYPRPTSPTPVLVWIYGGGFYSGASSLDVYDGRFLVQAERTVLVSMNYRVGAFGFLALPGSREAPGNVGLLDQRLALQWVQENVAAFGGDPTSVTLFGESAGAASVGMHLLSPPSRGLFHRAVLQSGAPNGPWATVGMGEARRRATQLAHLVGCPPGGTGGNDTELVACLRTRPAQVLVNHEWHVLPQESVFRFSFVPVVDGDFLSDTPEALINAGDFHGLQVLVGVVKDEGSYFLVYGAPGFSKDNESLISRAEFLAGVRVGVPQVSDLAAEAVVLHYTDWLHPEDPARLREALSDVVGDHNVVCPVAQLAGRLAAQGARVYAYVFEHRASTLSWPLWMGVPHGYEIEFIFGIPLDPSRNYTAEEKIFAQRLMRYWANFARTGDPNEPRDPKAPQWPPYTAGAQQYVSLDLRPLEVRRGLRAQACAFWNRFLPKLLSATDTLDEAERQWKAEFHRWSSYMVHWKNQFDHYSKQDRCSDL

For `CN(Cc1ccccc1)Cc1ccc(NC(=O)c2cc(=O)c3c(O)cc(O)cc3o2)cc1` [Compound 4, N-(4-((Benzyl(methyl)amino)methyl)phenyl)-5,7-dihydroxy-4-oxo-4H-chromene-2-carboxamide], the IC50 (usually the concentration needed to halve the response being measured) in data set [1] was 1900 ± 600 nM; at recombinant hMAO-A (mean ± SEM (n = 3), 100 µM highest concentration tested) it was 22800 ± 1500 nM; on recombinant hMAO-B it was more than 100000 nM. In addition, the Ki (usually the dissociation constant of the complex between target and ligand, obtained from inhibition or displacement) at σ2R is more than 3000 nM; at σ1R it was 510 ± 70 nM. Also, in data set [2], the “ORAC, trolox equivalents” value is 1.2 mmol of trolox/mmol of tested compound and 1.2 ± 0.1 mmol of trolox/mmol of tested compound. The “preference for hMAO-A compared to hMAO-B” value on recombinant hMAO-A was “at least 4.4 times”. The “Selectivity vs. σ1R (Kiσ2R/Kiσ1R)” value at σ1R is more than 5.9. Moreover, in data set [3], the Papp at 120 min, 100 μg mL^−1 came out at 14.7 ± 1.2 ×10⁻⁶ cm/s.

As for `CN1C(=N)N[C@](C)(c2cc(NC(=O)c3ccc(F)cn3)ccc2F)CS1(=O)=O` [verubecestat], the “reduction of Aβ levels in cerebrospinal fluid” value in data set [4] is listed as “up to 81%”.
